Laboratory results from patent publication US20250295609A1, “COMPOUND HAVING ANTI-ANDROGEN RECEPTOR ACTIVITY, AND USE THEREOF” (NANJING MINOVA PHARMACEUTICAL CO., LTD., priority 2022, published 2025).
Like-named read-outs stand apart in the source and are kept apart here.

What was measured:
[1] = tested on: human prostate cancer cells LNCaP; assay: Cell viability inhibition assay (CTG) on LNCaP cells in presence of DHT; assay type: cell-based; details: Homo sapiens, 120 h, read-out: Inhibitory activity against human prostate cancer cell LNCaP IC50
Description: (§1) Human prostate cancer cells LNCaP and human prostate cancer cells 22Rvl are present in patients with prostate cancer. An androgen, DHT, is able to promote the growth of human prostate cancer cells LNCaP. Using the cell model described above was intended to study the inhibitory effects of the compounds of the present disclosure on the growth of human prostate cancer cells (human prostate cancer cells LNCaP and human prostate cancer cells 22Rvl) in the presence or absence of DHT.
The medium in the culture dish was discarded, and 5 mL of trypsin was added for digestion for about 3 mins. The digestion was stopped by adding 10 mL of a fresh medium. The cells were fully pipetted and transferred to a 15 mL centrifuge tube, and the cells were collected by centrifugation at 1000 rpm for 5 mins. The cells collected by centrifugation were resuspended in 11 mL of a fresh medium. 1 mL of the cells was taken and counted, and the cell viability was detected. The cell density was adjusted to 1×10^4 cells/mL by adding an appropriate amount of the medium. The cells were seeded in a 96-well plate at 200 µL/well, and the plate was incubated overnight in a cell incubator.
After the cells were attached to the well, for the human prostate cancer cells LNCaP group, test compounds (0.1 μM, 0.3 μM, 1 μM, 3 μM, 10 μM, and 30 μM) and DHT (1 nM, inducing the expression of AR) were added to the 96-well plate, and the plate was incubated for another 5 days; for the human prostate cancer cells 22Rvl group, test compounds (0.1 μM, 0.3 μM, 1 μM, 3 μM, 10 μM, and 30 μM) were added to the 96-well plate, and the plate was incubated for another 5 days. […] The 96-well plate was equilibrated at room temperature for 30 mins. The cell viability was detected by using a CTG method. Before detection, CellTiter-Glo® Buffer and a substrate thereof (collectively called CTG reagent) were thawed and equilibrated to room temperature. Then, […] of Buffer was gently mixed with the substrate to form a homogeneous solution. The homogeneous solution was added to the 96-well plate at 100 µL/well, and the 96-well plate was incubated on a shaker for 15 mins. The fluorescence value in each well was then detected. The detection method for the fluorescence value in each well was as follows: after adding the CTG reagent, luminescence detection (integration time: 500 ms) was performed by using a correspondingly equipped multi-mode microplate reader (M200Pro, TECAN, Switzerland) according to the supplier's manual to quantify the effect of the inhibitor on the cell viability. For data analysis, an assay background value was subtracted from all data points, which was determined in wells containing the medium but no cells. Data were processed using the XLfit software (XLfit 5.2., IDBS, UK), and IC50 values of the test compounds were calculated.

[2] = tested on: human prostate cancer cells 22Rvl; assay: Cell viability inhibition assay (CTG) on 22Rvl cells; assay type: cell-based; details: 120 h, no DHT, 5 days, read-out: Inhibitory activity against human prostate cancer cells 22Rvl IC50
Description: as §1, with “DHT. […]” for “DHT.”
The medium in the culture dish was discarded, and 5 mL of trypsin was added for digestion for about 3 mins. […] 1 mL of the cells was taken and counted, and the cell viability was detected. […]
After the cells were attached to the well, for the human prostate cancer cells LNCaP group, test compounds (0.1 μM, 0.3 μM, 1 μM, 3 μM, 10 μM, and 30 μM) and DHT (1 nM, inducing the expression of AR) were added to the 96-well plate, and the plate was incubated for another 5 days; for the human prostate cancer cells 22Rvl group, test compounds (0.1 μM, 0.3 μM, 1 μM, 3 μM, 10 μM, and 30 μM) were added to the 96-well plate, and the plate was incubated for another 5 days. […] The cell viability was detected by using a CTG method. […] The fluorescence value in each well was then detected. […] For data analysis, an assay background value was subtracted from all data points, which was determined in wells containing the medium but no cells. […]

SMILES	IC50 [1] [nM]	IC50 ([1]; 1 nM DHT, 5 days, CTG) [nM]	IC50 [2] [nM]
COc1ccc(/C=C/C(=O)C2(C(=O)/C=C/c3ccc(OC)c(OC)c3)CCC(=O)CC2)cc1OC [Compound 7]	830		
COc1ccc(/C=C/C(=O)C2(C(=O)/C=C/c3ccc(OC)c(OC)c3)CCC(F)(F)CC2)cc1OC [Compound 8]		610	350
